Experimental data reported in US20150126467A1, “USE OF ALGINATE OLIGOMERS TO ENHANCE THE EFFECTS OF ANTIFUNGAL AGENTS” (AlgiIPharma AS, priority 2011, published 2015).
In brackets after ≈: the same amount, converted by molar mass. Like-named read-outs stand apart in the source and are kept apart here. One block for each compound: values may come before it.

Assays:
[1] = test system: Aspergillus niger CCUG 18919; experiment: Robotic MIC assay, Aspergillus (Example 4); assay type: cell-based; settings: Aspergillus niger, CCUG18919, 48 h, Mueller-Hinton broth, read-out: Minimum Inhibitory Concentration (MIC)
Experimental: (§1) Aspergillus sp. was grown at 30° C. for 96 h on YM-agar. Spores and aerial mycelium was cut out from the agar, suspended in 1 ml YM-broth and dispersed with glass beads (1 mm) in a mini bead beater for 2 min. Glycerol was added to the suspension to 10% and frozen at −80° C.
(§2) Each batch of frozen stock culture was then characterized in separate growth experiments using Mueller-Hinton broth to determine the minimum amount of inoculum giving satisfactory growth after 48 h under the conditions relevant for the MIC assay. This inoculation procedure is used in order to reduce day to day variation in bioassays.
(§3) Robotic minimum inhibitory concentration (MIC) assay was performed as follows. OligoG CF-5/20 was dissolved in medium (Mueller-Hinton broth) to 1.25 times of the desired assay concentrations (2, 6 and 10%). […].
(§4) Two-fold serial dilutions of antifungal agents were made in medium with different concentrations of OligoG CF-5/20, and the solutions were placed in four parallel wells in Nunc 384-well micro plates (30 μl per well in Nunc 242757 microplates). A group of 8 wells with no addition of antifungal agents for each OligoG CF-5/20 concentration was included on each micro plate as growth reference. Each well in the 384-well assay plates was added 7.5 μl of the MH medium inoculated with frozen stock culture of the relevant strains.
(§5) The microplates were placed in plastic bags and incubated without shaking at 34° C. The optical density at 600 nm in the microwells was measured after approximately 24 and 48 hours of incubation. […]

[2] = test system: Aspergillus flavus CCUG 28296; experiment: Robotic MIC assay, Aspergillus (Example 4); assay type: cell-based; settings: Aspergillus flavus, CCUG23451 / CCUG28296, 48 h, Mueller-Hinton broth, read-out: Minimum Inhibitory Concentration (MIC)
Experimental: as §1, §2, §3, §4, §5

[3] = test system: Aspergillus fumigatus CCUG 17460; experiment: Robotic MIC assay, Aspergillus (Example 4); assay type: cell-based; settings: Aspergillus fumigatus, CCUG17460, 48 h, Mueller-Hinton broth, read-out: Minimum Inhibitory Concentration (MIC)
Experimental: as §1, §2, §3, §4, §5

[4] = test system: C. parapsillosis ATCC 22019T; experiment: Robotic MIC assay, Candida strains (Example 2); assay type: cell-based, Candida parapsilosis; settings: Lodderomyces parapsilosis, ATCC22019, 48 h, Mueller-Hinton broth, read-out: Minimum Inhibitory Concentration (MIC)
Experimental: (§6) A robotic MIC Assay was performed as follows. OligoG CF-5/20 were dissolved in medium (Mueller-Hinton broth or M19 broth depending on experiment) to 1.25 times of the desired assay concentrations (2, 6 and 10%). The antifungal agents under test were dissolved in medium without OligoG CF-5/20 and in medium with OligoG CF-5/20 at a concentration of 1.25 times the highest desired assay concentrations. For experiments where the effect of adding different concentrations of Na^+ was investigated, NaCl was dissolved in medium to the desired concentrations (10, 30 and 50 mM).
(§7) Two-fold serial dilutions of antifungal agents were made in medium with different concentrations of OligoG CF-5/20, and the solutions were placed in four parallel wells in Nunc 384-well micro plates (30 μl per well in Nunc 242757 microplates). A group of 8 wells with no addition of antifungal agents for each OligoG CF-5/20 concentration was included on each microplate as growth reference. To each well in the 384-well assay plates was added 7.5 μl of medium inoculated with a frozen stock culture of Candida albicans (strain CCUG 39343).
(§8) The micro plates were placed in plastic bags and incubated without shaking at 34° C. The optical density at 600 nm in the microwells was measured after approximately 13, 18, 24 and 34 hours of incubation, and the relative growth yield in each well was calculated based on the growth in the reference groups.
(§9) The robotic assay described in Example 1 was employed in this Example. Strains were grown in Mueller-Hinton broth (LAB114 from Lab M Limited) and MIC values (μg ml-1) were determined for each antifungal after incubation for 48 h in the presence of 0, 2, 6 and 10% OligoG CF-5/20 G-fragments. […] OligoG CF-5/20 G-fragments were provided by AlgiPharma AS, Norway.
(§10) Candida strains used were as follows: • C. albicans CCUG 39343 (strain from culture collection) • C. parapsillosis ATCC 22019T (strain from culture collection) • C. krusei 141/03 (candidosis) • C. krusei 249/03(2) (ulceration) • C. lusitaniae 994/01(2) (candidosis) • C. tropicalis 12 (vaginal) • C. tropicalis 75 (vaginal) • C. tropicalis 519468 (urinary) • C. tropicalis 544123 (urinary) • C. tropicalis 250/03 (candidosis) • C. tropicalis AG1 (oral) • C. tropicalis T2.2 (oral)

C. albicans CCUG 39343 = experiment: Robotic MIC assay, Candida strains (Example 2); assay type: cell-based; settings: Candida albicans, CCUG39343, 48 h, Mueller-Hinton broth, read-out: Minimum Inhibitory Concentration (MIC)
Experimental: as §6, §7, §8, §9, §10

[5] = test system: C. tropicalis 519468 (urinary); experiment: Robotic MIC assay, Candida strains (Example 2); assay type: cell-based; settings: Candida tropicalis, 48 h, Mueller-Hinton broth, read-out: Minimum Inhibitory Concentration (MIC)
Experimental: as §6, §7, §8, §9, §10

[6] = test system: C. tropicalis 75 (vaginal); experiment: Robotic MIC assay, Candida strains (Example 2); assay type: cell-based; settings: Candida tropicalis, 48 h, Mueller-Hinton broth, read-out: Minimum Inhibitory Concentration (MIC)
Experimental: as §6, §7, §8, §9, §10

[7] = test system: C. tropicalis 250/03 (candidosis); experiment: Robotic MIC assay, Candida strains (Example 2); assay type: cell-based; settings: Candida tropicalis, 48 h, C. tropicalis 250/03 Candiosis, Mueller-Hinton broth, read-out: Minimum Inhibitory Concentration (MIC)
Experimental: as §6, §7, §8, §9, §10

[8] = test system: C. tropicalis T2.2 (oral); experiment: Robotic MIC assay, Candida strains (Example 2); assay type: cell-based; settings: Candida tropicalis, 48 h, Mueller-Hinton broth, read-out: Minimum Inhibitory Concentration (MIC)
Experimental: as §6, §7, §8, §9, §10

[9] = test system: C. lusitaniae 994/01(2) (candidosis); experiment: Robotic MIC assay, Candida strains (Example 2); assay type: cell-based; settings: Clavispora lusitaniae, 48 h, Mueller-Hinton broth, read-out: Minimum Inhibitory Concentration (MIC)
Experimental: as §6, §7, §8, §9, §10

[10] = test system: C. krusei 141/03 (candidosis); experiment: Robotic MIC assay, Candida strains (Example 2); assay type: cell-based; settings: Pichia kudriavzevii, 48 h, Mueller-Hinton broth, read-out: Minimum Inhibitory Concentration (MIC)
Experimental: as §6, §7, §8, §9, §10

[11] = A. niger CCUG 18919, 10% OligoG
[12] = A. flavus CCUG 23451, 0% OligoG
[13] = A. flavus CCUG 23451, 2% OligoG
[14] = A. flavus CCUG 23451, 6% OligoG
[15] = A. flavus CCUG 23451, 10% OligoG
[16] = A. fumigatus CCUG 17460, 0% OligoG
[17] = A. fumigatus CCUG 17460, 2% OligoG
[18] = A. fumigatus CCUG 17460, 6% OligoG
[19] = A. fumigatus CCUG 17460, 10% OligoG

Compound: C[C@@H]1[C@H](O)[C@@H](C)/C=C/C=C/C=C/C=C/C=C/C=C/C=C/[C@H](O[C@@H]2O[C@H](C)[C@@H](O)[C@H](N)[C@@H]2O)C[C@@H]2O[C@](O)(C[C@@H](O)C[C@@H](O)[C@H](O)CC[C@@H](O)C[C@@H](O)CC(=O)O[C@H]1C)C[C@H](O)[C@H]2C(=O)O [Amphotericin B, amphotericin B]
- MIC ([1]; A. niger CCUG 18919, 0% OligoG): 0.188 µg/mL (≈ 0.203 µM)
- MIC ([1]; A. niger CCUG 18919, 2% OligoG): 0.188 µg/mL (≈ 0.203 µM)
- MIC ([1]; A. niger CCUG 18919, 6% OligoG): 0.0938 µg/mL (≈ 0.101 µM)
- MIC [1, 11]: 0.0469 µg/mL (≈ 0.0507 µM)
- MIC [2, 12]: 0.75 µg/mL (≈ 0.812 µM)
- MIC [2, 13]: 0.375 µg/mL (≈ 0.406 µM)
- MIC [2, 14]: 0.375 µg/mL (≈ 0.406 µM)
- MIC [2, 15]: 0.188 µg/mL (≈ 0.203 µM)
- MIC [3, 16]: 0.75 µg/mL (≈ 0.812 µM)
- MIC [3, 17]: 0.375 µg/mL (≈ 0.406 µM)
- MIC [3, 18]: 0.375 µg/mL (≈ 0.406 µM)
- MIC [3, 19]: 0.188 µg/mL (≈ 0.203 µM)

- MIC ([4]; 0% OligoG): 2 µg/mL (≈ 6.53 µM)
- MIC ([4]; 2% OligoG): 2 µg/mL (≈ 6.53 µM)
- MIC ([4]; 6% OligoG): 0.5 µg/mL (≈ 1.63 µM)
- MIC ([4]; 10% OligoG): 0.25 µg/mL (≈ 0.816 µM)
- MIC (C. albicans CCUG 39343; 0% OligoG): 16 µg/mL (≈ 52.2 µM)
- MIC (C. albicans CCUG 39343; 2% OligoG): 16 µg/mL (≈ 52.2 µM)
- MIC (C. albicans CCUG 39343; 6% OligoG): 8 µg/mL (≈ 26.1 µM)
- MIC (C. albicans CCUG 39343; 10% OligoG): 4 µg/mL (≈ 13.1 µM)
- MIC ([5]; 0% OligoG): 128 µg/mL (≈ 418 µM)
- MIC ([5]; 2% OligoG): 1 µg/mL (≈ 3.27 µM)
- MIC ([5]; 6% OligoG): 0.5 µg/mL (≈ 1.63 µM)
- MIC ([5]; 10% OligoG): 0.25 µg/mL (≈ 0.816 µM)
- MIC ([6]; 0% OligoG): 2 µg/mL (≈ 6.53 µM)
- MIC ([6]; 2% OligoG): 1 µg/mL (≈ 3.27 µM)
- MIC ([6]; 6% OligoG): 0.5 µg/mL (≈ 1.63 µM)
- MIC ([6]; 10% OligoG): 0.25 µg/mL (≈ 0.816 µM)
- MIC ([7]; 0% OligoG): 8 µg/mL (≈ 26.1 µM)
- MIC ([7]; 2% OligoG): 4 µg/mL (≈ 13.1 µM)
- MIC ([7]; 6% OligoG): 2 µg/mL (≈ 6.53 µM)
- MIC ([7]; 10% OligoG): 2 µg/mL (≈ 6.53 µM)
- MIC ([8]; 0% OligoG): > 128 µg/mL
- MIC ([8]; 2% OligoG): 0.5 µg/mL (≈ 1.63 µM)
- MIC ([8]; 6% OligoG): 0.25 µg/mL (≈ 0.816 µM)
- MIC ([8]; 10% OligoG): < 0.125 µg/mL
- MIC ([9]; 0% OligoG): 0.5 µg/mL (≈ 1.63 µM)
- MIC ([9]; 2% OligoG): 0.25 µg/mL (≈ 0.816 µM)
- MIC ([9]; 6% OligoG): < 0.125 µg/mL
- MIC ([9]; 10% OligoG): < 0.125 µg/mL
- MIC ([10]; 0% OligoG): 128 µg/mL (≈ 418 µM)
- MIC ([10]; 2% OligoG): 64 µg/mL (≈ 209 µM)
- MIC ([10]; 6% OligoG): 64 µg/mL (≈ 209 µM)
- MIC ([10]; 10% OligoG): 64 µg/mL (≈ 209 µM)
- MIC ([1]; A. niger CCUG 18919, 0% OligoG): > 128 µg/mL
- MIC ([1]; A. niger CCUG 18919, 2% OligoG): > 128 µg/mL
- MIC ([1]; A. niger CCUG 18919, 6% OligoG): > 128 µg/mL
- MIC [1, 11]: 128 µg/mL (≈ 418 µM)
- MIC [2, 12]: 64 µg/mL (≈ 209 µM)
- MIC [2, 13]: 64 µg/mL (≈ 209 µM)
- MIC [2, 14]: 32 µg/mL (≈ 104 µM)
- MIC [2, 15]: 32 µg/mL (≈ 104 µM)
- MIC [3, 16]: > 128 µg/mL
- MIC [3, 17]: > 128 µg/mL
- MIC [3, 18]: 128 µg/mL (≈ 418 µM)
- MIC [3, 19]: 128 µg/mL (≈ 418 µM)
Compound: OC(Cn1cncn1)(Cn1cncn1)c1ccc(F)cc1F [Fluconazole, fluconazole]

- MIC ([1]; A. niger CCUG 18919, 0% OligoG): 1 µg/mL (≈ 2.4 µM)
- MIC ([1]; A. niger CCUG 18919, 2% OligoG): 0.5 µg/mL (≈ 1.2 µM)
- MIC ([1]; A. niger CCUG 18919, 6% OligoG): 0.25 µg/mL (≈ 0.601 µM)
- MIC [1, 11]: 0.25 µg/mL (≈ 0.601 µM)
- MIC [2, 12]: 1 µg/mL (≈ 2.4 µM)
- MIC [2, 13]: 0.25 µg/mL (≈ 0.601 µM)
- MIC [2, 14]: 0.25 µg/mL (≈ 0.601 µM)
- MIC [2, 15]: 0.25 µg/mL (≈ 0.601 µM)
- MIC [3, 16]: 4 µg/mL (≈ 9.61 µM)
- MIC [3, 17]: 2 µg/mL (≈ 4.81 µM)
- MIC [3, 18]: 2 µg/mL (≈ 4.81 µM)
- MIC [3, 19]: 2 µg/mL (≈ 4.81 µM)
Compound: Clc1ccc(COC(Cn2ccnc2)c2ccc(Cl)cc2Cl)c(Cl)c1 (centres unmarked) [Miconazole, miconazole]
